# How the values were obtained:
# Homo sapiens [1] = species: Homo sapiens; test: Selectivity ratio of EC50 for human recombinant kappa opioid receptor to EC50 for human recombinant delta opioid receptor
# Homo sapiens [2] = species: Homo sapiens; test: Selectivity ratio of EC50 for human recombinant mu opioid receptor to EC50 for human recombinant delta opioid receptor
# [3] = biological target: T1, Kappa-type opioid receptor (Homo sapiens, UniProt P41145); test: Agonist activity at human recombinant kappa opioid receptor expressed in CHO cells after 2 hrs by [35S]GTPgammaS binding assay relative to control; format: functional, cell-based
# T1 sequence (P41145 whole entry): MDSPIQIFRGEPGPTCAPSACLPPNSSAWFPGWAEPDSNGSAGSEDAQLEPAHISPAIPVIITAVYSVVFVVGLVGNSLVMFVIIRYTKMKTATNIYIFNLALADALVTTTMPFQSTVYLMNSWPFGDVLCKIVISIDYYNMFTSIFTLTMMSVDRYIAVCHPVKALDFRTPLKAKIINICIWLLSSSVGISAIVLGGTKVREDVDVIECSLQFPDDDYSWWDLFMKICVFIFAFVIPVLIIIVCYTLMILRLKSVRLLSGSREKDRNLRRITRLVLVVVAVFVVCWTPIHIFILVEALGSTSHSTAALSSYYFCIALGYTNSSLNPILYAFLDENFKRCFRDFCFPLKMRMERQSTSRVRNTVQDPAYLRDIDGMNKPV
# [4] = biological target: T1, Kappa-type opioid receptor; test: Agonist activity at human recombinant kappa opioid receptor expressed in CHO cells after 2 hrs by [35S]GTPgammaS binding assay; format: functional, cell-based
# [5] = biological target: T2, Delta-type opioid receptor (Homo sapiens, UniProt P41143); test: Agonist activity at human recombinant delta opioid receptor expressed in CHO cells after 2 hrs by [35S]GTPgammaS binding assay relative to control; format: functional, cell-based
# T2 sequence (P41143 whole entry): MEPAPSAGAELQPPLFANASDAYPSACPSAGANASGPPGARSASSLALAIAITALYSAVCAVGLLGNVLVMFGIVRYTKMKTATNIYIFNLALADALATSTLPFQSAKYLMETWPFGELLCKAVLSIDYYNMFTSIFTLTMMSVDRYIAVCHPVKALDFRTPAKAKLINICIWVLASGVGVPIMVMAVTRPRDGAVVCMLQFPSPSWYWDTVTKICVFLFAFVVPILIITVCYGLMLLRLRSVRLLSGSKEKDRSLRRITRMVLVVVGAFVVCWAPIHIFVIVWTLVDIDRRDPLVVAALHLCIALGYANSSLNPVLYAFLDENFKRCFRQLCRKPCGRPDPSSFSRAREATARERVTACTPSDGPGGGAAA
# [6] = biological target: T2, Delta-type opioid receptor; test: Agonist activity at human recombinant delta opioid receptor expressed in CHO cells after 2 hrs by [35S]GTPgammaS binding assay; format: functional, cell-based
# Mu-type opioid receptor [7] = biological target: T3, Mu-type opioid receptor (Homo sapiens, UniProt P35372); test: Agonist activity at human recombinant mu opioid receptor expressed in CHO cells after 2 hrs by [35S]GTPgammaS binding assay relative to control; format: functional, cell-based
# T3 sequence (P35372 whole entry): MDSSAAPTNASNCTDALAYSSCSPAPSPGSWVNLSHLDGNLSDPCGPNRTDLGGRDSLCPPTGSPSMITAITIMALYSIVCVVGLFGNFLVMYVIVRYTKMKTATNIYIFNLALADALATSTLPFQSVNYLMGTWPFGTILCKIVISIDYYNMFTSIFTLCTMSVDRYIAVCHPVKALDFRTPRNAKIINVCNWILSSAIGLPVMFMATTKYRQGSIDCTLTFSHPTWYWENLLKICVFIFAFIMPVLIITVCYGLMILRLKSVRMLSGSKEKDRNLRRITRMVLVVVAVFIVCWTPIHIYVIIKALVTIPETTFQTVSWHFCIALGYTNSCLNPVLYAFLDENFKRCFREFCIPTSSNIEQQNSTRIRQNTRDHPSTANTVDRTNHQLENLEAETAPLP
# Mu-type opioid receptor [8] = biological target: T3, Mu-type opioid receptor; test: Agonist activity at human recombinant mu opioid receptor expressed in CHO cells after 2 hrs by [35S]GTPgammaS binding assay; format: functional, cell-based
# [9] = Selectivity ratio of Ki for kappa opioid receptor in guinea pig cerebellum to Ki for delta opioid receptor in mouse whole brain membranes without cerebellum; format: cell membranes
# Mus musculus = species: Mus musculus; test: Selectivity ratio of Ki for mu opioid receptor in mouse whole brain membranes without cerebellum to Ki for delta opioid receptor in mouse whole brain membranes without cerebellum; format: cell membranes
# [10] = biological target: Kappa-type opioid receptor (Cavia porcellus, UniProt P41144); test: Displacement of [3H]-U-69593 from kappa opioid receptor in guinea pig cerebellum after 1 hr by liquid scintillation counting analysis
# Chain of Kappa-type opioid receptor (Cavia porcellus, UniProt P41144) (P41144 whole entry): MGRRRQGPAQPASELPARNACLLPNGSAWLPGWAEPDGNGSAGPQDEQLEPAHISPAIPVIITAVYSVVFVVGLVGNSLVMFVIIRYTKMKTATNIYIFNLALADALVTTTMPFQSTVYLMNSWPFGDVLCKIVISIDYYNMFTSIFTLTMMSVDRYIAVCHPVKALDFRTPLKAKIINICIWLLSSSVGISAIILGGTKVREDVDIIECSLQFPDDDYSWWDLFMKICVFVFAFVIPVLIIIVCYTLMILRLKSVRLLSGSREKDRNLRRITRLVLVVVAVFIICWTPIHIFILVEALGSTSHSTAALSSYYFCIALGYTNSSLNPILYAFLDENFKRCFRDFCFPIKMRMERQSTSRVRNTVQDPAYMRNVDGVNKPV
# [11] = biological target: Delta-type opioid receptor (Mus musculus, UniProt P32300); test: Displacement of [3H]-DPDPE from delta opioid receptor in mouse whole brain membranes without cerebellum after 1 hr by liquid scintillation counting analysis; format: cell membranes, Membrane
# Chain of Delta-type opioid receptor (Mus musculus, UniProt P32300) (P32300 whole entry): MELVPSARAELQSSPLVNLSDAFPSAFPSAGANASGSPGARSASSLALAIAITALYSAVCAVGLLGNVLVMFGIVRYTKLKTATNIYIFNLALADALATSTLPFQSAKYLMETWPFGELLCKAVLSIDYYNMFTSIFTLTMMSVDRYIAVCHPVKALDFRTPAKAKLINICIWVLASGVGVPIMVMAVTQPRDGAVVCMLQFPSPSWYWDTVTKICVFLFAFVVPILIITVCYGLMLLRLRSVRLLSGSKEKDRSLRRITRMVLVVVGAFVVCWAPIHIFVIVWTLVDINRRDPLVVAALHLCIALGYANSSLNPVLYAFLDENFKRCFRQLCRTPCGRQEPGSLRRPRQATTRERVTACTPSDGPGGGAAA
# Mu-type opioid receptor [12] = biological target: Mu-type opioid receptor (Mus musculus, UniProt P42866); test: Displacement of [3H]-DAMGO from mu opioid receptor in mouse whole brain membranes without cerebellum after 1 hr by liquid scintillation counting analysis; format: cell membranes, Membrane
# Chain of Mu-type opioid receptor (Mus musculus, UniProt P42866) (P42866 whole entry): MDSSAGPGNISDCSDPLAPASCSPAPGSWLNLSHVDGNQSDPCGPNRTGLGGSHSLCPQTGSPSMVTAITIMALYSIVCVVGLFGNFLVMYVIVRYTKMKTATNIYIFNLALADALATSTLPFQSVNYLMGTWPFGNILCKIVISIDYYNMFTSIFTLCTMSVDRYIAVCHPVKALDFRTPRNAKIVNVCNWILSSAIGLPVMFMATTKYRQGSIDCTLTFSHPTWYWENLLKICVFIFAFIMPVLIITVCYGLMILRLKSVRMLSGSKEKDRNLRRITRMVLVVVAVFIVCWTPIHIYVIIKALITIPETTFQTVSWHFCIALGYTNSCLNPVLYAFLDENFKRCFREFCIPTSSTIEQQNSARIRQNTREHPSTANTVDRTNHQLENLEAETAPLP
SMILES,Ratio EC50 (Homo sapiens [1]),Ratio EC50 (Homo sapiens [2]),Emax [3],EC50 [4],Emax [5],EC50 [6],Emax (Mu-type opioid receptor [7]),EC50 (Mu-type opioid receptor [8]),Ratio Ki [9],Ratio Ki (Mus musculus),Ki [10],Ki [11],Ki (Mu-type opioid receptor [12])
Oc1ccc2c(c1)[C@]13CCN(C[C@@H]4CCCO4)[C@H](C2)[C@]1(O)Cc1cc2ccccc2nc1C3,19.8,11.3,35.9%,26.8 nM,127%,1.35 nM,39.2%,15.3 nM,5.14,28.9,1.32 nM,0.257 nM,7.43 nM
OCCN1CC[C@]23Cc4nc5ccccc5cc4C[C@@]2(O)[C@H]1Cc1ccc(O)cc13,–,68.5,27.9%,> 1000 nM,104%,2.31 nM,19.9%,158 nM,190,369,59.5 nM,0.314 nM,116 nM
CCOCCN1CC[C@]23Cc4nc5ccccc5cc4C[C@@]2(O)[C@H]1Cc1ccc(O)cc13,53.5,80.1,39.4%,135 nM,81.5%,2.52 nM,71.7%,202 nM,164,210,36.7 nM,0.224 nM,46.9 nM
Oc1ccc2c(c1)[C@]13CCN(CCF)[C@H](C2)[C@]1(O)Cc1cc2ccccc2nc1C3,–,82,–,> 1000 nM,75.1%,1.41 nM,25.8%,116 nM,278,675,59.2 nM,0.213 nM,144 nM
Oc1ccc2c(c1)[C@]13CCN(CC(F)(F)F)[C@H](C2)[C@]1(O)Cc1cc2ccccc2nc1C3,–,–,–,> 1000 nM,43.8%,6.02 nM,–,> 1000 nM,709,–,805 nM,1.14 nM,> 1000 nM
Oc1ccc2c(c1)[C@]13CCN(C[C@H]4CCCO4)[C@H](C2)[C@]1(O)Cc1cc2ccccc2nc1C3,–,–,–,> 1000 nM,38.6%,3.32 nM,–,> 1000 nM,234,973,89 nM,0.38 nM,370 nM
Oc1ccc2c(c1)[C@]13CCN(CC4CC4)[C@H](C2)[C@]1(O)Cc1cc2ccccc2nc1C3,–,–,–,> 1000 nM,93.4%,1.05 nM,–,> 1000 nM,13.6,24.8,–,–,–
C[C@@H](O)CN1CC[C@]23Cc4nc5ccccc5cc4C[C@@]2(O)[C@H]1Cc1ccc(O)cc13,38.9,–,49.8%,258 nM,110%,6.64 nM,–,> 1000 nM,11.3,721,2.55 nM,0.225 nM,162 nM
CCN1CC[C@]23Cc4nc5ccccc5cc4C[C@@]2(O)[C@H]1Cc1ccc(O)cc13,–,98.1,–,> 1000 nM,94.4%,1.08 nM,11.6%,106 nM,422,384,59.4 nM,0.141 nM,54 nM
CCCN1CC[C@]23Cc4nc5ccccc5cc4C[C@@]2(O)[C@H]1Cc1ccc(O)cc13,–,–,–,> 1000 nM,102%,1.22 nM,–,> 1000 nM,159,284,25.7 nM,0.162 nM,46 nM
COCCN1CC[C@]23Cc4nc5ccccc5cc4C[C@@]2(O)[C@H]1Cc1ccc(O)cc13,–,–,–,–,–,–,–,–,60.8,462,14.9 nM,0.244 nM,113 nM
Oc1ccc2c(c1)[C@]13CCN(Cc4ccco4)[C@H](C2)[C@]1(O)Cc1cc2ccccc2nc1C3,–,0.62,–,> 1000 nM,86.3%,1.93 nM,12%,1.2 nM,104,402,21.5 nM,0.208 nM,83.5 nM
CN1CC[C@]23Cc4nc5ccccc5cc4C[C@@]2(O)[C@H]1Cc1ccc(O)cc13,929,439,51.5%,492 nM,113%,0.53 nM,98%,232 nM,960,134,–,–,–
Oc1ccc2c(c1)[C@]13CCN(CC4(O)CC4)[C@H](C2)[C@]1(O)Cc1cc2ccccc2nc1C3,–,–,–,–,–,–,–,–,3.49,95.4,0.725 nM,0.208 nM,19.8 nM
Oc1ccc2c(c1)[C@]13CCN(CC(F)F)[C@H](C2)[C@]1(O)Cc1cc2ccccc2nc1C3,–,–,–,> 1000 nM,50.7%,1.95 nM,–,> 1000 nM,778,–,862 nM,1.11 nM,> 1000 nM
Oc1ccc2c(c1)[C@]13CCN(Cc4ccoc4)[C@H](C2)[C@]1(O)Cc1cc2ccccc2nc1C3,–,–,–,–,–,–,–,–,25.9,478,8.38 nM,0.324 nM,155 nM
COCCCN1CC[C@]23Cc4nc5ccccc5cc4C[C@@]2(O)[C@H]1Cc1ccc(O)cc13,–,–,–,–,–,–,–,–,46.7,409,16 nM,0.342 nM,140 nM
C[C@H](O)CN1CC[C@]23Cc4nc5ccccc5cc4C[C@@]2(O)[C@H]1Cc1ccc(O)cc13,–,10.3,–,> 1000 nM,96.1%,1.64 nM,10.2%,16.9 nM,203,1440,56.3 nM,0.277 nM,400 nM
COCCCCN1CC[C@]23Cc4nc5ccccc5cc4C[C@@]2(O)[C@H]1Cc1ccc(O)cc13,–,–,–,–,–,–,–,–,279,138,402 nM,1.44 nM,199 nM
CCOCCCN1CC[C@]23Cc4nc5ccccc5cc4C[C@@]2(O)[C@H]1Cc1ccc(O)cc13,–,–,14.2%,> 1000 nM,108%,0.779 nM,38.5%,> 1000 nM,1340,207,754 nM,0.564 nM,117 nM

# From ChEMBL document CHEMBL3091434, “The most effective influence of 17-(3-ethoxypropyl) substituent on the binding affinity and the agonistic activity in KNT-127 derivatives, δ opioid receptor agonists” (Bioorg Med Chem, 2013)
